Entries after “also recorded” stand apart in the source; their conditions may differ.
Experiments:
BRD4 = BRD4 (Homo sapiens, UniProt O60885); assay: CURE-PRO-mediated BRD4 degradation in MCF7 cells, WES (ProteinSimple); assay type: cell-based; set-up: endogenous in cells
Experimental: WES Simple analysis was performed on WES system (ProteinSimple-Biotechne) according to the manufacturer's instructions. Total protein concentrations of cell lysates were determined by the Pierce BCA kit (Thermo Fisher). 3 μL of 0.3 μg/μL of the protein lysate was loaded onto a 12- to 230-kDa WES assay plate (ProteinSimple) where 300 nL sample was withdrawn through a capillary, subjected to electrophoretic separation of proteins by size, and followed by the simultaneous, HRP-based detection of proteins using the Anti-Rabbit Detection Module (Proteinsimple: #DM-001). The electropherograms were checked then the automatic peak detection was manually corrected if it was required.
MCF7 cells (3×10^6) were treated for 4-24 hours continually (FIG. 72), or treated for 4 h, washed and incubated for a further 4-24 h with the compounds solubilized in DMSO. Compounds were added at 10 μM each. Cells were washed, lysed, and clarified by centrifugation. The total protein concentration was quantified by the BCA method (ThermoFisher Sciences). Standardized protein samples were electrophoresed and imaged as described in the WES Proteinsimple section above. FIG. 69 depicts the CURE-PRO-mediated BRD4 degradation for the BRD-E50 monomer, and VHL ligand, 8305.
MCF7 cells (3×10^6) were treated for 24 hours with the compounds solubilized in DMSO. CURE-PRO monomers were added at 10 μM each and the proteasomal inhibitors at 1 μM. Standardized protein samples were electrophoresed and imaged as described in the WES Proteinsimple section above. FIGS. 73 and 75 depicts the dependence of the proteasome for CURE-PRO-mediated BRD4 degradation.
MCF7 cells (3×10^6) were treated for 24 hours with the compounds solubilized in DMSO. CURE-PRO monomers were added at 10 μM. FIG. 74 depicts the CURE-PRO-mediated BRD4 degradation for the BRD-E50 monomer, and VHL ligand, 8305 combined in a 1:1 ratio after 24 h.

BRD3 = target: T1, BRD3 (Homo sapiens, UniProt Q15059); assay: BRD protein family degradation in HCT116 cells, Western blot: BRD3; assay type: cell-based; conditions: 1:1 with MDM2 ligands 8310 and 8312 (each), HCT116, 24 h, 100 nM-10 μM
T1 construct: endogenous in cells; host or cells: HCT116
T1 sequence (Q15059 whole entry): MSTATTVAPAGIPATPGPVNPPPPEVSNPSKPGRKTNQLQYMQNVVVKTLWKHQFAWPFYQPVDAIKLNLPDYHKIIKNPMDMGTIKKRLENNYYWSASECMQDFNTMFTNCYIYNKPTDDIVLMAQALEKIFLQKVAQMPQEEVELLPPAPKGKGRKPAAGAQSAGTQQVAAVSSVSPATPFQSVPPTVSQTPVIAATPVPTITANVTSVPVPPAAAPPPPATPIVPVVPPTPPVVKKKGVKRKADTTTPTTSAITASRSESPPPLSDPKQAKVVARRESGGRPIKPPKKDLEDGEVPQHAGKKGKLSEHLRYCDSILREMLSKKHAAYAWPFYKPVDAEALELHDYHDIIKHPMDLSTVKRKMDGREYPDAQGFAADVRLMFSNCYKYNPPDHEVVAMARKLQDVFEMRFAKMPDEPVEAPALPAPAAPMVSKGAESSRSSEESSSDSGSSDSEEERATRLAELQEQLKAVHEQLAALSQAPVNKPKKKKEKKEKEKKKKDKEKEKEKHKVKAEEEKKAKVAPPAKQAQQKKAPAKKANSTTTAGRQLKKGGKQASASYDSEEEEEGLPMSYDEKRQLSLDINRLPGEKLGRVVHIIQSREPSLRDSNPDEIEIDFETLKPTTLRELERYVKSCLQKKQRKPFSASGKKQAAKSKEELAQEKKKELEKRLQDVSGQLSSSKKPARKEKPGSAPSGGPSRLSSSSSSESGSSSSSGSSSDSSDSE
Experimental: Namalwa, Ramosm HeLa, MCF7, or HT29 HCT116 cells (2.5-3×10^6) were treated for 24 hours with the indicated compounds solubilized in DMSO. The cells were washed in ice-cold PBS and were then lysed in RIPA lysis buffer (150 mM NaCl, 5 mM EDTA, 1% NP-40, 0.5% sodium deoxycholate, 0.1% SDS, 50 mM Tris, pH 8.0.) with Roche protease inhibitor complete cocktail and phosphatase inhibitors (10 mM sodium fluoride, 10 mM sodium pyrophosphate, 1 mM sodium orthovanadate and 20 mM β-glycerophosphate). The total protein concentrations were determined by Bradford Protein Assay (Pierce) and 10-20 μg of protein was loaded onto 4-15% Tris-Glycine gradient gels (Biorad). After standard gel electrophoresis, the separated proteins were transferred to PVDF membrane by wet transfer. The immunoblots were then blocked for 1 hour in 5% skim milk in TBST or 5% BSA in TBST, according to manufacturer's instructions, before an overnight incubation at 4° C. with indicated antibodies and membranes. […] Signal was detected with ECL Western Blotting Substrate (Pierce) and X-ray film processed with a Konica SRX-101 X-ray film processor or captured by Bio-Rad's Chemidoc Imaging system. […]

CCNC(=O)C[C@@H]1N=C(c2ccc(Cl)cc2)c2cc(OCCCCC(=O)Nc3cccc(B(O)O)c3)ccc2-n2c(C)nnc21 [BRD-E20, (3-(5-(((4S)-6-(4-chlorophenyl)-4-(2-(ethylamino)-2-oxoethyl)-1-methyl-4H-benzo[f][1,2,4]triazolo[4,3-a][1,4]diazepin-8-yl)oxy)pentanamido)phenyl)boronic acid]
BRD4 degradation with proteasome inhibitors (BRD4; 1:1 with 8305 at 10 μM, pre-incubation with MG-132 and Carfilzomib 1 μM, MCF7): inhibited by the pre-incubation with MG-132 and Carfilzomib; also recorded: inhibited with the proteasome inhibitors, MG-132 and Carfilzomib | BRD4 degradation (BRD4; 1:1 with VHL ligand 8305, MCF7, 10 μM each, 4-24 h): caused BRD4 degradation; also recorded: marked BRD4 degradation | BRD4 degradation (BRD4; co-incubated with VHL ligand 8304, MCF7, 10 μM each): failed to induce BRD4 degradation

CCNC(=O)C[C@@H]1N=C(c2ccc(Cl)cc2)c2cc(OCCOCCNC(=O)c3cccc(O)c3O)ccc2-n2c(C)nnc21 [BRD-N39, N-(2-(2-(((4S)-6-(4-chlorophenyl)-4-(2-(ethylamino)-2-oxoethyl)-1-methyl-4H-benzo[f][1,2,4]triazolo[4,3-a][1,4]diazepin-8-yl)oxy)ethoxy)ethyl)-2,3-dihydroxybenzamide]
BRD3 degradation (BRD3): degradation of BRD3; also recorded: Degradation is evident
